According to article PMC10584170, “Machine learning-based phenotypic imaging to characterise the targetable biology of Plasmodium falciparum male gametocytes for the development of transmission-blocking antimalarials” (PLOS Pathogens, 2023):

Legend:
[1] = test system: P. falciparum male gametocytes; assay: P. falciparum Dual Gamete Formation Assay (PfDGFA), male readout (exflagellation); assay type: cell-based, Plasmodium falciparum NF54; settings: for Average inhibition male (%): average of replicates; for % inhibition male (individual replicates) R1: replicate R1; for % inhibition male (individual replicates) R3: replicate R3; for % inhibition male (individual replicates) R4: replicate R4; for Activity: hit = >50% inhibition in male or female readout in at least 3 replicates, 0 = no class assigned
Outline: (§1)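 First, day-14 P. falciparum NF54 gametocytes receive compound for 24 h at 37°C in 1% O2/3% CO2. Next, ookinete medium with Cy3 anti-Pfs25 triggers gametogenesis at 28°C and male exflagellation is imaged. Finally, after 24 h in the dark, Cy3-labelled females are imaged.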

[2] = test system: P. falciparum female gametocytes; assay: P. falciparum Dual Gamete Formation Assay (PfDGFA), female readout (Pfs25-positive female gametes); assay type: cell-based, Plasmodium falciparum NF54; settings: for Average inhibition female (%): average of replicates; for % inhibition female (individual replicates) R1: replicate R1; for % inhibition female (individual replicates) R3: replicate R3; for % inhibition female (individual replicates) R4: replicate R4
Outline: as §1

[3] = 2µM, 24h preincubation with gametocytes
[4] = PfDGFA at 2µM, 24h preincubation with gametocytes prior to induction of gametogenesis
[5] = PfDGFA at 2µM, 24h preincubation
[6] = PfDGFA at 2µM, 24h preincubation with gametocytes
[7] = number of replicates with >50% inhibition in the male readout, 2µM
[8] = number of replicates with >50% inhibition in the female readout, 2µM
[9] = 2µM, 24h preincubation with gametocytes prior to induction of gametogenesis
[10] = 2µM, 24h preincubation, number of replicates with >50% inhibition in the male readout
[11] = 2µM, 24h preincubation, number of replicates with >50% inhibition in the female readout
[12] = 2µM, 24h preincubation, hits selected on >50% inhibition in the male readout across replicates
[13] = 2µM, 24h preincubation, hits selected on >50% inhibition in the female readout across replicates

| SMILES | % inhibition male (individual replicates) R1 [1, 4] | % inhibition male (individual replicates) R4 [1, 4] | Average inhibition male (%) [1, 5] | % inhibition female (individual replicates) R1 [2, 4] | % inhibition female (individual replicates) R3 [2, 4] | % inhibition female (individual replicates) R4 [2, 4] | Average inhibition female (%) [2, 5] | Average inhibition male (%) [1, 9] | % inhibition male (individual replicates) R1 [1, 9] | % inhibition male (individual replicates) R3 [1, 9] | % inhibition male (individual replicates) R4 [1, 9] | Average inhibition female (%) [2, 9] | % inhibition female (individual replicates) R1 [2, 9] | % inhibition female (individual replicates) R3 [2, 9] | % inhibition female (individual replicates) R4 [2, 9] | further results |
| --- | --- | --- | --- | --- | --- | --- | --- | --- | --- | --- | --- | --- | --- | --- | --- | --- |
| CCCc1cc2c3c(N)nc(N)nc3ccc2n1CC [TCMDC-137946] |  |  |  |  |  |  |  |  |  |  |  |  |  |  |  | Average inhibition male (%) [1, 3]: 95.8%; % inhibition male (individual replicates) R1 [1, 3]: 97.3%; % inhibition male (individual replicates) R3 [1, 3]: 96.2%; % inhibition male (individual replicates) R4 [1, 3]: 104.1%; Average inhibition female (%) [2, 3]: 82.6%; % inhibition female (individual replicates) R1 [2, 3]: 82.8%; % inhibition female (individual replicates) R3 [2, 3]: 88.8%; % inhibition female (individual replicates) R4 [2, 3]: 84.8% |
| CCCC(CC)n1ccc2c3c(N)nc(N)nc3ccc21.CS(=O)(=O)O (centres unmarked) [TCMDC-137948] | 21.2% | 12.8% | 22.4% | -1.7% | -3.2% | -13.6% | -8.1% |  |  |  |  |  |  |  |  | % inhibition male (individual replicates) R3 [1, 4]: 21.4% |
| CCCC(CCC)n1ccc2c3c(N)nc(N)nc3ccc21.Cl [TCMDC-137949] | 35.5% | -40.5% | 0.9% | 4.6% | 19.1% | -10.8% | 3.5% |  |  |  |  |  |  |  |  | % inhibition male (individual replicates) R3 [1, 4]: 0.4% |
| CCCOc1c(CCNCCCCNCCc2ccc3ccccc3c2OCCC)ccc2ccccc12.CS(=O)(=O)O [TCMDC-137950] |  |  |  |  |  |  |  |  |  |  |  |  |  |  |  | Average inhibition male (%) [1, 6]: 74.1%; % inhibition male (individual replicates) R1 [1, 6]: 87.0%; % inhibition male (individual replicates) R3 [1, 6]: 74.0%; % inhibition male (individual replicates) R4 [1, 6]: 95.7%; HitlevelM [1, 7]: 3; Average inhibition female (%) [2, 6]: 65.5%; % inhibition female (individual replicates) R1 [2, 6]: 72.1%; % inhibition female (individual replicates) R3 [2, 6]: 62.6%; % inhibition female (individual replicates) R4 [2, 6]: 79.5%; HitlevelF [2, 8]: 3 |
| COc1cc2ccccc2cc1CNCCCCCCNCc1cc2ccccc2cc1OC.CS(=O)(=O)O [TCMDC-137955] |  |  |  |  |  |  |  | 53.1% | 58.5% | -7.9% | 78.9% | 14.7% | 13.5% | -9.9% | 5.4% | HitlevelM [1, 10]: 3; HitlevelF [2, 11]: 0 |
| Cc1cc2c3c(N)nc(N)nc3ccc2n1C [TCMDC-137957] |  |  |  |  |  |  |  | 2.4% | -0.85% | -3.6% | 3.4% | 31.9% | 39.3% | 32.6% | 34.2% | HitlevelM [1, 10]: 0; HitlevelF [2, 11]: 0 |
| Nc1nc(N)c2c(ccc3c2ccn3CCCCO)n1 [TCMDC-137959] | 21.0% | -1.8% | 15.1% | -0.01% | -3.7% | 2.0% | -0.9% |  |  |  |  |  |  |  |  |  |
| Nc1nc(N)c2c(ccc3nn(C4CCCC4)cc32)n1 [TCMDC-137960] |  |  |  |  |  |  |  | -1.6% | 13.2% |  | -27.5% | 4.4% | 5.0% | 5.0% | 9.1% | HitlevelM [1, 12]: 0; Activity [1, 5]: 0; HitlevelF [2, 13]: 0 |
| CCCCCCOc1ccc2ccccc2c1CNCCCCCCNCc1c(OCCCCCC)ccc2ccccc12.CS(=O)(=O)O [TCMDC-137963] |  |  |  |  |  |  |  | 26.5% | 35.9% | 2.2% | 25.6% | 30.9% | 24.3% | 23.7% | 29.4% | HitlevelM [1, 10]: 0; HitlevelF [2, 11]: 0 |
| CC(C)COc1ccc2ccccc2c1CNCCCCCCNCc1c(OCC(C)C)ccc2ccccc12.CS(=O)(=O)O [TCMDC-137972] |  |  |  |  |  |  |  | 47.1% | 41.0% | 61.0% | 84.0% | 43.0% | 37.9% | 36.7% | 62.6% | HitlevelM [1, 10]: 2; HitlevelF [2, 11]: 1 |
| CN(C)S(=O)(=O)n1ccc2c3c(N)nc(N)nc3ccc21 [TCMDC-137973] |  |  |  |  |  |  |  | -3.2% | 31.1% | -3.2% | -51.1% | 12.1% | 13.5% | 33.5% | 1.8% | HitlevelM [1, 12]: 0; Activity [1, 5]: 0; HitlevelF [2, 13]: 0 |
| CCCCOc1c(CNCCCCCCNCc2ccc3ccccc3c2OCCCC)ccc2ccccc12.CS(=O)(=O)O [TCMDC-137975] |  |  |  |  |  |  |  |  |  |  |  |  |  |  |  | Average inhibition male (%) [1, 6]: 78.3%; % inhibition male (individual replicates) R1 [1, 6]: 78.0%; % inhibition male (individual replicates) R4 [1, 6]: 67.8%; HitlevelM [1, 7]: 3; Average inhibition female (%) [2, 6]: 39.1%; % inhibition female (individual replicates) R1 [2, 6]: 52.1%; % inhibition female (individual replicates) R3 [2, 6]: 14.4%; % inhibition female (individual replicates) R4 [2, 6]: 37.6%; HitlevelF [2, 8]: 2 |
| CC(C)(C)c1ccc(-c2cc3c(ccc4nc(N)nc(N)c43)[nH]2)cc1 [TCMDC-137977] |  |  |  |  |  |  |  | 2.0% | 6.1% | 0.4% | -0.46% | 6.0% | 2.7% | -16.6% | 37.6% | HitlevelM [1, 12]: 0; Activity [1, 5]: 0; HitlevelF [2, 13]: 0 |
| Nc1nc(N)c2c(ccc3c2ccn3Cc2ccccn2)n1 [TCMDC-137980] | -11.9% | -51.4% | -22.7% | 1.3% | -9.6% | 4.7% | -4.0% |  |  |  |  |  |  |  |  |  |
| C=CCn1ccc2c3c(N)nc(N)nc3ccc21 [TCMDC-137995] | 38.6% | 16.7% | 27.9% | -8.1% | -14.1% | 22.9% | -3.2% |  |  |  |  |  |  |  |  | % inhibition male (individual replicates) R3 [1, 4]: 29.0% |
